Data set [1] addresses T1, Human Src (Homo sapiens, UniProt P12931).
T1 construct: purchased Upstate (Charlottesville, Va.) 14-326
In words: Src kinase assay (PKLight ATP utilization, substrate phosphorylation as % of parent peptide). The conditions noted are these: for Src (Qual. Act.): DOX-Src kinase substrate conjugates. Format: biochemical. As to the method:
Another test may involve monitoring the consumption of ATP. For example, ATP concentrations at time 0 or after 4 hour incubation may be monitored by luciferase reaction (PKLight kit obtained from Cambrex Corporation, One Meadowlands Plaza, East Rutherford, N.J. 07073), which generate a luminescence readout in the presence of ATP. Assays are initiated by mixing a kinase and a peptide in the presence of 40 μM ATP. After 4 hour of incubation at 30° C., PKLight reagent is added and mixed well, and luminescence readout measured. The rate of peptide phosphorylation is then directly related to the rate of decrease in the observed luminescence. Based on the first test, linkers of appropriate lengths and peptides with an effective amount of kinase activity which may be expected to be retained in the drug conjugate may be found.
Human Src (#14-326) and Akt (#14-276) kinases were purchased from Upstate (Charlottesville, Va.). Kinase reactions were carried out in 50 μl kinase reaction cocktail (25 mM Tris-HCl, pH 7.5, 5 μM β-glycerophosphate, 2 mM DTT, 0.1 mM Na3VO4, 10 mM MgCl2, 1 mg/ml BSA, […], 0.5 to 1.0 units enzyme). Substrates (peptide or drug-peptide conjugate in […]) were added (25, 50 and 100 μM) and the reaction was incubated for 2-5 hours at 30° C. PKLight reagent (23 μl) (Cambrex BioSciences, Rockland, Me.) was mixed with […] of the above kinase reaction and ATP utilization relative to no substrate and no ATP controls was determined by measuring luminescence with a SpectraMax Gemini EM plate reader (Molecular Devices, Sunnyvale, Calif.). Peptide substrates for Src and Akt have been described. For examples, see Lou et al. Letters in Peptide Science, 2, 289-296 (1995); Lou et al. Bioorganic & Medicinal Chemistry, 4, 677-682 (1996); Alessi et al. FEBS Letters, 399, 333-338 (1996). Substrate phosphorylation potential was determined from the linear portion of the substrate concentration dose response as a percentage of the activity observed with the parent peptide used for drug conjugation.

Data set [2] relates to tubulin. In words: Fluorescence-based tubulin polymerization assay (MPA; enhancement for paclitaxel, inhibition for vinblastine). The format is biochemical. An excerpt: Drug-linker constructs may further be screened using functional assays predictive of biological activity. […] Tubulin assembly or inhibition thereof may be monitored by fluorescence using the CytoDYNAMIX Screen™ 10 kit available from Cytoskeleton (1830 S. Acoma St., Denver, Colo.). […] Emission is monitored at 405 nm with excitation at 360 nm. […] Tubulin assembly or inhibition may also be monitored by light scattering which is approximated by the apparent absorption at 350 nm. For paclitaxel drug conjugates BSA is employed to prevent aggregation and glycerol, which is a tubulin polymerization enhancer, is omitted from the kit to increase the signal to noise ratio.
The assay kit (#BK011) was purchased from Cytoskeleton (Denver, Colo.). The assays were carried out according to the manufacturer's instructions, except that 1 mg/ml BSA (Sigma #A3059) was included in all assays. […] Parent drugs and conjugates were tested at 0.75, 1.5, 3 and 10 micromolar final concentration and results represent a comparison of conjugate and parent drug curves obtained from the linear range of the dose responses.
(±SD) represent the average of all tests carried out for all lots of a given compound.

Data set [3] relates to MCF-7 breast carcinoma. In words: Cytotoxicity assay (monolayer), MCF-7.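 Note: cells treated 72 h with 6-8 compound doses versus DMSO vehicle controls, EC50 fitted by 4-parameter dose-response curves, averaged across all tests and lots.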 The format is cell-based. The conditions noted are these: MCF7, ML (monolayer); read-out: MCF7 (EC50 Ave) ML.
The test system of data set [4] is HT-29 colorectal carcinoma. In words: Cytotoxicity assay (monolayer), HT-29.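 Note: monolayer cultures tested in triplicate, compound exposure for three days against DMSO vehicle controls, EC50 fitted from dose-response curves and averaged across all tests and lots.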 The conditions noted are these: HT29, ML (monolayer); read-out: HT29 (EC50 Ave) ML. Format: cell-based.
In data set [5] the test system is HUVEC. In words: Cytotoxicity assay (monolayer), HUVEC. Format: cell-based. Conditions: ML (monolayer), read-out: HUVEC (EC50 Ave) ML.
Data set [6] concerns Normal human foreskin fibroblasts (HFF). Conditions: read-out: HFF (EC50 Ave) ML; HFF, ML (monolayer).

pEC50: −log10 of the molar value. Primed or numbered codes have the meaning given here. * marks the point of attachment. 10Ca = carbamate linkage conjugating the peptide-PEG to paclitaxel at C10; 10Ca‑PXL = paclitaxel conjugated at C10 via a carbamate; 3Am‑VBL = vinblastine (VBL) conjugate; 3′Alk‑MAL(9) = not defined here; ALK(6) = not defined here; MAL(9) = not defined here; 3′Alk = not defined here; PEG(11) = PEG(11) linker; PEG(29) = PEG(29) linker; 10Es = not defined here; PEG(11)″ = PEG11 linker; 3Am = not defined here; Cbz = O=C(OCc1ccccc1)*; PEG(13) = PEG13 linker; Boc = CC(C)(C)OC(=O)*; Piv = CC(C)(C)C(=O)*; OBn = c1ccc(CO*)cc1; DOX = doxorubicin; VBL = vinblastine; PXL = paclitaxel

With “Ac-E(Bzl)YIYGSFK(CBz)-PEG(13)-10Ca-PXL (Ac-E(OBn)YIYGSFK(Cbz)-{PEG(13)-10Ca-PXL})”, the “Average src kinase activity” value in data set [1] was “Zero”. Also, in data set [2], the “Ave. MPA Act.” value is on record as “A (A<50)”.
As for “Ac-EYIFGSFK-PEG(13)-10Ca-PXL (N-acetyl, PEG13, paclitaxel conjugate)”, in data set [1], the “Average src kinase activity” value is “Zero”. The “Ave. MPA Act.” value in data set [2] is “B (B=50-80)”. The pEC50 in data set [3], in data set [4] and in data set [5] was less than 7.00 in each case.
Consider “Ac-EYIYGSFK(CBz)-PEG(13)-10Ca-PXL (Ac-EYIYGSFK(Cbz)-{PEG(13)-10Ca-PXL})”, for which, in data set [1], the “Average src kinase activity” value is “B (B=20-40)”. Further, the “Ave. MPA Act.” value in data set [2] is given as “A (A<50)”. The negative-log EC50 (pEC50) in data set [3], in data set [4] and in data set [5] was less than 7.00 in each case.
Regarding “Ac-EYIYGSFK-3′Alk-MAL(9)-DOX (Ac-EYIYGSFK-{3′Alk‑MAL(9)-DOX}; reading uncertain; also: printed as Ac-EYIYGSFK-3′Alk-MAL(9)-DOX)”, in data set [1], the “Src (Qual. Act.)” value is recorded as “C (C>40)”. Moreover, the negative logarithm of the EC50 (pEC50) in data set [3], in data set [5] and in data set [6] was less than 7.00 in each case.
On to “Ac-EYIYGSFR-PEG(13)-10Ca-PXL (N-acetyl, PEG13, paclitaxel conjugate)”, for which the “Average src kinase activity” value in data set [1] is recorded as “B (B=20-40)”. The “Ave. MPA Act.” value in data set [2] was “B (B=50-80)”. Also, the pEC50 in data set [3], in data set [4], in data set [5] and in data set [6] was less than 7.00 in each case.
Consider “Ac-YIFGSFK(BOC)-PEG(11)-3Am-VBL (Ac-YIFGSFK(Boc)-{PEG(11)″-3Am-VBL}; reading uncertain; also: printed as Ac-YIFGSFK(BOC)-PEG(11)-3Am-VBL)”, for which the “Average src kinase activity” value in data set [1] is reported as “B (B=20-40)”. In addition, the “Ave. MPA Act.” value in data set [2] is listed as “B (B=50-80)”. The negative-log EC50 (pEC50) in data set [3], in data set [4], in data set [5] and in data set [6] was less than 7.00 each time.
Take “Ac-YIFGSFK-PEG(11)-3Am-VBL (N-acetyl; PEG(11) linker; vinblastine conjugate)”: the “Average src kinase activity” value in data set [1] is reported as “C (C>40)”. For the same substance, the “Ave. MPA Act.” value in data set [2] is recorded as “B (B=50-80)”. In addition, the negative-log EC50 (pEC50) in data set [3], in data set [4], in data set [5] and in data set [6] was less than 7.00 throughout.
As to “Ac-YIYGSFK-3′Alk-MAL(9)-DOX (Ac-YIYGSFK-{3′Alk-MAL(9)-DOX}; reading uncertain; also: printed as Ac-YIYGSFK-3′Alk-MAL(9)-DOX)”, the “Src (Qual. Act.)” value in data set [1] was “C (C>40)”. Moreover, the pEC50 in data set [3] is less than 7.00.
As for “Ac-YIYGSFK-PEG(13)-10Ca-PXL (N-acetyl; PEG(13) linker; paclitaxel conjugate)”, the “Average src kinase activity” value in data set [1] is listed as “C (C>40)”. In addition, the “Ave. MPA Act.” value in data set [2] is “B (B=50-80)”. Moreover, the negative-log EC50 (pEC50) in data set [3], in data set [4] and in data set [5] was less than 7.00 throughout.
With “BOC-GIYWHHY-PEG(11)-3Am-VBL (N-BOC; PEG(11) linker; vinblastine conjugate)”, the “Average src kinase activity” value in data set [1] is listed as “A (A<20)”. Moreover, the “Ave. MPA Act.” value in data set [2] was “B (B=50-80)”. In addition, the negative logarithm of the EC50 (pEC50) in data set [3] and in data set [4] was less than 7.00 each time.
With “BOC-GIYWHHY-PEG(29)-3Am-VBL (N-BOC; PEG(29) linker; vinblastine conjugate)”, in data set [1], the “Average src kinase activity” value was “A (A<20)”. For the same substance, the “Ave. MPA Act.” value in data set [2] was “B (B=50-80)”. The negative logarithm of the EC50 (pEC50) in data set [3], in data set [5] and in data set [6] was less than 7.00 each time.
As for “BOC-YI(phospho)YGSFK(BOC)-PEG(11)-3Am-VBL (Boc-YIYGSFK(Boc)-{PEG(11)-3Am-VBL}; reading uncertain; also: phospho at I2 as written: I(phospho), printed as BOC-YI(phospho)YGSFK(BOC)-PEG(11)-3Am-VBL)”, in data set [1], the “Average src kinase activity” value was “C (C>40)”. In addition, in data set [2], the “Ave. MPA Act.” value is “C (C>80)”. In addition, the pEC50 is less than 7.00 in data set [3], less than 7.00 in data set [5] and 7.00 to 7.70 in data set [6].
Turning to “CBz-GIYWHHY-PEG(11)-3Am-VBL (N-CBz; PEG(11) linker; vinblastine conjugate)”, the “Average src kinase activity” value in data set [1] is listed as “A (A<20)”. For the same substance, the “Ave. MPA Act.” value in data set [2] was “B (B=50-80)”. Also, the negative-log EC50 (pEC50) in data set [3] and in data set [4] was less than 7.00 each time.
As to “CBz-YIYGSFK(BOC)-PEG(11)-3Am-VBL (Cbz-YIYGSFK(Boc)-{PEG(11)-3Am-VBL}; reading uncertain; also: printed as CBz-YIYGSFK(BOC)-PEG(11)-3Am-VBL)”, the “Average src kinase activity” value in data set [1] is reported as “A (A<20)”. For the same substance, the “Ave. MPA Act.” value in data set [2] is listed as “C (C>80)”. For the same substance, the pEC50 in data set [3], in data set [4] and in data set [5] was less than 7.00 throughout.
With “CBz-YIYGSFK(CBz)-ALK(6)-10Es-PXL (Cbz-YIYGSFK(Cbz)-{ALK(6)-10Es-PXL}; reading uncertain; also: printed as CBz-YIYGSFK(CBz)-ALK(6)-10Es-PXL)”, the “Average src kinase activity” value in data set [1] is reported as “Zero”. Also, the negative-log EC50 (pEC50) was 7.00 to 7.70 in data set [3] and less than 7.00 in data set [4].
Turning to “CBz-YIYGSFK-3′Alk-MAL(9)-DOX (Cbz-YIYGSFK-{3′Alk-MAL(9)-DOX}; reading uncertain; also: printed as CBz-YIYGSFK-3′Alk-MAL(9)-DOX)”, the “Src (Qual. Act.)” value in data set [1] was “C (C>40)”. For the same substance, the pEC50 in data set [3] and in data set [5] was less than 7.00 each time.
As to “H-GIYWHHY-PEG(29)-3Am-VBL (H-GIYWHHY-{PEG(29)-3Am-VBL}; reading uncertain)”, the “Average src kinase activity” value in data set [1] is reported as “C (C>40)”. Besides, in data set [2], the “Ave. MPA Act.” value is reported as “C (C>80)”. For the same substance, the pEC50 in data set [3], in data set [5] and in data set [6] was less than 7.00 each time.
In the case of “H-YIYGSFK-3′Alk-MAL(9)-DOX (H-YIYGSFK-{3′Alk-MAL(9)-DOX}; reading uncertain)”, the “Src (Qual. Act.)” value in data set [1] is “C (C>40)”. Further, the pEC50 in data set [3] and in data set [6] was less than 7.00 each time.
For the substance “H-YIYGSFK-ALK(6)-10Es-PXL (H-YIYGSFK-{ALK(6)-10Es-PXL}; reading uncertain)”, in data set [1], the “Average src kinase activity” value is on record as “C (C>40)”. Moreover, the “Ave. MPA Act.” value in data set [2] is “B (B=50-80)”. Further, the pEC50 in data set [3], in data set [4] and in data set [6] was less than 7.00 in each case.
On to “Pv-GRSRTSSFAEG-PEG(13)-10Ca-PXl (Piv-GRSRTSSFAEG-{PEG(13)-10Ca‑PXL}; also: 2 TFA salt)”, for which the “Ave. MPA Act.” value in data set [2] is “C (C>80)”.
On to “Pv-RLVAYEGYV-PEG(11)-3Am-VBL (Piv-RLVAYEGYV-{PEG(11)-3Am‑VBL})”, for which the “Ave. MPA Act.” value in data set [2] was “B (B=50-80)”. Besides, the pEC50 in data set [3], in data set [4], in data set [5] and in data set [6] was less than 7.00 throughout.
With “Pv-RLVAYEGYV-PEG(13)-10Ca-PXL (Piv-RLVAYEGYV-{PEG(13)-10Ca‑PXL})”, the “Ave. MPA Act.” value in data set [2] was “A (A<50)”. For the same substance, the pEC50 in data set [3], in data set [4], in data set [5] and in data set [6] was less than 7.00 throughout.

As a reminder, the pEC50 is the EC50 on a negative log10 scale, so that one unit is a factor of ten.

(Values after patent US20060234909A1, “Compositions and methods for increasing drug efficiency” (priority 2003, published 2006).)
